# Data from publication PMC7316778 (Nature Communications, 2020).
# Where “and” joins values, the source holds several entries; their conditions need not be identical. Identical values can stand only once. Like-named read-outs stand apart in the source and are kept apart here.
# What was measured:
# Test in all cases: SelectScreen kinase assay
# MAP2K6 (MKK6) = molecular target: T1, MAP2K6 (MKK6) (Homo sapiens, UniProt P52564)
# T1 sequence (P52564 1-334): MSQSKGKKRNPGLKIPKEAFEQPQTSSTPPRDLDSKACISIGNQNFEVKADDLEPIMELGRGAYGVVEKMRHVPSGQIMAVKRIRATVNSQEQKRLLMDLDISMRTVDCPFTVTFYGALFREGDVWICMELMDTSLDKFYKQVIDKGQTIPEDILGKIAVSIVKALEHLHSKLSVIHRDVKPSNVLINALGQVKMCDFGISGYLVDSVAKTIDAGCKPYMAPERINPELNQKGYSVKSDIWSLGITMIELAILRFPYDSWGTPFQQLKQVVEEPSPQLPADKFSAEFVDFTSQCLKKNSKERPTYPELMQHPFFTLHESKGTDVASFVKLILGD
# Protocol: (§1) Selectivity profiling assays were performed by the Invitrogen SelectScreen™ Services. […] The concentration of ATP was selected to be equal to the KM, unless indicated otherwise.
# AKT3 (PKB gamma) = AKT3 (PKB gamma) (Homo sapiens, UniProt Q9Y243); conditions: for Inhibition at 1 µM (%): AKT3 (PKB gamma), ZLYTE, ATP Km app
# Protocol: as §1
# FER = FER (Homo sapiens, UniProt P16591)
# Protocol: as §1
# TLK1 = TLK1 (Homo sapiens, UniProt Q9UKI8)
# Protocol: as §1
# PIK3C3 (hVPS34) = PIK3C3 (hVPS34) (Homo sapiens, UniProt Q8NEB9)
# Protocol: as §1
# CDK5 (Inactive) = CDK5 (Inactive) (Homo sapiens, UniProt Q00535)
# Protocol: as §1
# DYRK4 = DYRK4 (Homo sapiens, UniProt Q9NR20); assay type: biochemical
# AXL = AXL (Homo sapiens, UniProt P30530); conditions: for Inhibition at 1 µM (%): AXL, ZLYTE, ATP Km app
# Protocol: as §1
# RPS6KA3 (RSK2) = RPS6KA3 (RSK2) (Homo sapiens, UniProt P51812)
# Protocol: as §1
# CSF1R (FMS) = CSF1R (FMS) (Homo sapiens, UniProt P07333)
# Protocol: as §1
# STK25 (YSK1) = STK25 (YSK1) (Homo sapiens, UniProt O00506)
# Protocol: as §1
# TLK2 = TLK2 (Homo sapiens, UniProt Q86UE8)
# Protocol: as §1
# PRKD2 (PKD2) = molecular target: T2, PRKD2 (PKD2) (Homo sapiens, UniProt Q9BZL6); conditions: for Inhibition at 1 µM (%): ZLYTE, ATP Km app
# T2 sequence (Q9BZL6 1-878): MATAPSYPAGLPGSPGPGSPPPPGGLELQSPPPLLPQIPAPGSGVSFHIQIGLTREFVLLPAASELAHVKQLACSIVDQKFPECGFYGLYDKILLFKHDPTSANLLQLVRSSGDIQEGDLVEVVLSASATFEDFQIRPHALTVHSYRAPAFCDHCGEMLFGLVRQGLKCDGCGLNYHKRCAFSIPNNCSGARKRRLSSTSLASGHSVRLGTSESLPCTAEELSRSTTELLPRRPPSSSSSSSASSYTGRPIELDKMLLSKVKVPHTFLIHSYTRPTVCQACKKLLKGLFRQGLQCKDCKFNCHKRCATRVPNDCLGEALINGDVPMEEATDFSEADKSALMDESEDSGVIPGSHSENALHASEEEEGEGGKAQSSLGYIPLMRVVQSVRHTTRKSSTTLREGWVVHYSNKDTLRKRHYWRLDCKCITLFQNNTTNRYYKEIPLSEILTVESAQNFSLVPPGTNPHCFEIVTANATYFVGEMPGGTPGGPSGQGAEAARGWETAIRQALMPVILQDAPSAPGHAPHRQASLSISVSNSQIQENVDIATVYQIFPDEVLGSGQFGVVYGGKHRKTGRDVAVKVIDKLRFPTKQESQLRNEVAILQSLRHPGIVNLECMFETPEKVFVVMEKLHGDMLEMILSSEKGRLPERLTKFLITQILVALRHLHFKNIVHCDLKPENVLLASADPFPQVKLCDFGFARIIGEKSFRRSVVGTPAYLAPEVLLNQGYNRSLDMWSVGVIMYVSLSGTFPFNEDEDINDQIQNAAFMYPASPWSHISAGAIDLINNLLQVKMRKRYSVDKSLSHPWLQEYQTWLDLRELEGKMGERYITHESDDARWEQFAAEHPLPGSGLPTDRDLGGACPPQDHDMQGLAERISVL
# Protocol: as §1
# NEK4 = NEK4 (Homo sapiens, UniProt P51957)
# Protocol: as §1
# CSNK1A1 (CK1 alpha 1) = CSNK1A1 (CK1 alpha 1) (Homo sapiens, UniProt P48729)
# Protocol: as §1
# [1] = 1 h, 1 μM WEL028, 1 h preincubation
# CSNK1A1 (CK1 alpha 1), sequence (P48729 whole entry): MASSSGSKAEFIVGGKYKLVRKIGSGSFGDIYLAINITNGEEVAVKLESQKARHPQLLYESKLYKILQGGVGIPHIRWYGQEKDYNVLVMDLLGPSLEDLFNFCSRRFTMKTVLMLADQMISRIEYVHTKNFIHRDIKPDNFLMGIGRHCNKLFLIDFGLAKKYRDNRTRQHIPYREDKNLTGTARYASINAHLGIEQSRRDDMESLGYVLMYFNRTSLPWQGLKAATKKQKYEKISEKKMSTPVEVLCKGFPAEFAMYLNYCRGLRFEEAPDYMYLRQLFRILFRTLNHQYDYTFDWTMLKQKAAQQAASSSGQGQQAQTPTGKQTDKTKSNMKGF
# CSF1R (FMS), sequence (P07333 20-972): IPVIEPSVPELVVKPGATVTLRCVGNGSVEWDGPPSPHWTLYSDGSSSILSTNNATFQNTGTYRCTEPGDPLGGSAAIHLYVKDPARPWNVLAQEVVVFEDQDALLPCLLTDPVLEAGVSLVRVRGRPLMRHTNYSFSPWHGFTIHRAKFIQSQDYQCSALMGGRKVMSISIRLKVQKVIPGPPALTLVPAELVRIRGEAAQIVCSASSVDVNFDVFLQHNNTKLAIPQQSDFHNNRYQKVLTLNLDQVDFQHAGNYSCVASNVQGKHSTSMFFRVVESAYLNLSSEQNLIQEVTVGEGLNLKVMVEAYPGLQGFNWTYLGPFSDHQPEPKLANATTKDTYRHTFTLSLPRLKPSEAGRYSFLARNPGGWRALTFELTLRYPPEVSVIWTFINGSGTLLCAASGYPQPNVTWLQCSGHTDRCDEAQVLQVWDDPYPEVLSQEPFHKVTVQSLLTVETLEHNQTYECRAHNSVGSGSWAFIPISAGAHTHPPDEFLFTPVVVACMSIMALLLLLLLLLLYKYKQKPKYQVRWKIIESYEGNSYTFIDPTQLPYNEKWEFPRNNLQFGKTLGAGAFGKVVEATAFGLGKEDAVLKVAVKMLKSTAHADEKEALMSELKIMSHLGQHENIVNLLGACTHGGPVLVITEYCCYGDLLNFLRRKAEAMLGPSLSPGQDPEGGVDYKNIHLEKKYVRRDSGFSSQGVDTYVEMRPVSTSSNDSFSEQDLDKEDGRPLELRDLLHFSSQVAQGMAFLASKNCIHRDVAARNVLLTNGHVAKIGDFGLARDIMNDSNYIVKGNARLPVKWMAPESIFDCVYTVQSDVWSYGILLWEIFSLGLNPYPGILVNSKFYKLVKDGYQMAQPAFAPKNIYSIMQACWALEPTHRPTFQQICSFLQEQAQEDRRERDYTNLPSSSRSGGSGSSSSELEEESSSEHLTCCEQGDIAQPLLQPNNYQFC
# DYRK4, sequence (Q9NR20 whole entry): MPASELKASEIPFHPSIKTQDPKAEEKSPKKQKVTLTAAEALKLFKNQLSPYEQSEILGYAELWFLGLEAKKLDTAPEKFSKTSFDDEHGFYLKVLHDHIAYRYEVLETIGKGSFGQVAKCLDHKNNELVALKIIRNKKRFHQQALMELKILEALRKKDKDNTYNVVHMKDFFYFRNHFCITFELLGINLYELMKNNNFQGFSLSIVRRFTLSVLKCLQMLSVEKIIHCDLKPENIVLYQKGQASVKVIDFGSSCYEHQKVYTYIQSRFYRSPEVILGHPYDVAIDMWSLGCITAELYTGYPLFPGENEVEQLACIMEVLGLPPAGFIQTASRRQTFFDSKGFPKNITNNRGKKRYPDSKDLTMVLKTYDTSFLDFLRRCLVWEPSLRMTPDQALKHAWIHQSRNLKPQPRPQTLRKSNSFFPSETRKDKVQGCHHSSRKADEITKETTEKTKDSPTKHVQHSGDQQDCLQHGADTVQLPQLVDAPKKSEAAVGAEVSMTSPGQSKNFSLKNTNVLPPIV
# NEK4, sequence (P51957 whole entry): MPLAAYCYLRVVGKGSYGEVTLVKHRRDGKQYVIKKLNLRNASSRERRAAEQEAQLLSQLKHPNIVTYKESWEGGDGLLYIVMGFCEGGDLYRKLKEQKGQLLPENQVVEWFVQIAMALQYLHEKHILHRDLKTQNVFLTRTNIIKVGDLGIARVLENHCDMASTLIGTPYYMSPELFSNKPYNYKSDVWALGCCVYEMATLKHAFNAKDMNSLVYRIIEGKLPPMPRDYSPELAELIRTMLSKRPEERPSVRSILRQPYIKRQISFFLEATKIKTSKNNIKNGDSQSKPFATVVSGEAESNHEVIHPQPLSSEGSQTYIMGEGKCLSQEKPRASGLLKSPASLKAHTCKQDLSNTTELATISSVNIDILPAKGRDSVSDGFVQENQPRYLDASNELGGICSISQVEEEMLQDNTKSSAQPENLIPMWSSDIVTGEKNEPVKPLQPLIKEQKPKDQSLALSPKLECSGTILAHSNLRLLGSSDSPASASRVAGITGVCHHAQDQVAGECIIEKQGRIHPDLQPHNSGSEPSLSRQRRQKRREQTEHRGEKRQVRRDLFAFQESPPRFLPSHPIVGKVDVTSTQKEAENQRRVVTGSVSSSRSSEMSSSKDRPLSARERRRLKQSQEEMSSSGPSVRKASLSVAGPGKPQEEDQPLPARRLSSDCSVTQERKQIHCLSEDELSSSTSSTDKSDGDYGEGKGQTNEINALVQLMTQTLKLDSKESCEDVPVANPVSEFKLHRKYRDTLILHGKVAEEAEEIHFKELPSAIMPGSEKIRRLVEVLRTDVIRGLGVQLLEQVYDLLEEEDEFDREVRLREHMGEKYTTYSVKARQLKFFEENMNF
# RPS6KA3 (RSK2), sequence (P51812 whole entry): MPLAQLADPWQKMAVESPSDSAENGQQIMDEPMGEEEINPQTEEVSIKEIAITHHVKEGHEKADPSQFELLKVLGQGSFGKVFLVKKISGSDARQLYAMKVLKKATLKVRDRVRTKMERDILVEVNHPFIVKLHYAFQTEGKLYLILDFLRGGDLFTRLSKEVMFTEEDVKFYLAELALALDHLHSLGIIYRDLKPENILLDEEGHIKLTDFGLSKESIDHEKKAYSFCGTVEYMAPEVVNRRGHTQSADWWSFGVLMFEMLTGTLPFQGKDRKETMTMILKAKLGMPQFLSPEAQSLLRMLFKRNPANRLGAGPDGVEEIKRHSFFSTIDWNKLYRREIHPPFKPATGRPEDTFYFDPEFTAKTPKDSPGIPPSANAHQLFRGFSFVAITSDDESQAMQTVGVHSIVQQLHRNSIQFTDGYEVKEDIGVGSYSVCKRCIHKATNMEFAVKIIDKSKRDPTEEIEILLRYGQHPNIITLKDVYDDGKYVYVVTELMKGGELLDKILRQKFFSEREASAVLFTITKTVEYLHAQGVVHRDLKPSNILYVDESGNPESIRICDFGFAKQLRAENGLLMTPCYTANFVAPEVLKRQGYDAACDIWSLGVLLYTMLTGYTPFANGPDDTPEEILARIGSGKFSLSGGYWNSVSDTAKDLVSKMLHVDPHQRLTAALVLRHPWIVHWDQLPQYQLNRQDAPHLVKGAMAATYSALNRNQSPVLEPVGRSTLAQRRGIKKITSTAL
# AXL, sequence (P30530 26-894): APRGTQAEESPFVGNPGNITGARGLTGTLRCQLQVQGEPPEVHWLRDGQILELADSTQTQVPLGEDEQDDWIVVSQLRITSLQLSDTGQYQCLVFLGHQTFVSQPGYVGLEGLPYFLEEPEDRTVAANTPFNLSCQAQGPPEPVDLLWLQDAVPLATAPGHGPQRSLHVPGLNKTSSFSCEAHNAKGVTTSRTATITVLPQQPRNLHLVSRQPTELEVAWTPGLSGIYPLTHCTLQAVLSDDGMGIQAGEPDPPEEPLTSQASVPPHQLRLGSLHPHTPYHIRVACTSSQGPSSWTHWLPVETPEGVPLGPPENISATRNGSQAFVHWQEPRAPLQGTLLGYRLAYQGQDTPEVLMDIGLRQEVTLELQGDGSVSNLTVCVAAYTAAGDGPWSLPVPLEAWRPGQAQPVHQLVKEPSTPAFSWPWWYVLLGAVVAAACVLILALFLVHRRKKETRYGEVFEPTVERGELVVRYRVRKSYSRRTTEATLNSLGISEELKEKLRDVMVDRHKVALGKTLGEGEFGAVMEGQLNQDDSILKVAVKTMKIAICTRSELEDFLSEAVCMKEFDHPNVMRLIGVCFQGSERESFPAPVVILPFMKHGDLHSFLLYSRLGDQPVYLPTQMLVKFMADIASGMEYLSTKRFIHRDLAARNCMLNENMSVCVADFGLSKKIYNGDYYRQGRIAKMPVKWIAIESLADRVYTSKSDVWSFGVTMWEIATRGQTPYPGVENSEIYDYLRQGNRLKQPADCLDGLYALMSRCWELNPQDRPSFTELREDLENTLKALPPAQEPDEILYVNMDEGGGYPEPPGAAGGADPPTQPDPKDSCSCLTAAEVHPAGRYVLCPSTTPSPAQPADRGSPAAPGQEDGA
# CDK5 (Inactive), sequence (Q00535 whole entry): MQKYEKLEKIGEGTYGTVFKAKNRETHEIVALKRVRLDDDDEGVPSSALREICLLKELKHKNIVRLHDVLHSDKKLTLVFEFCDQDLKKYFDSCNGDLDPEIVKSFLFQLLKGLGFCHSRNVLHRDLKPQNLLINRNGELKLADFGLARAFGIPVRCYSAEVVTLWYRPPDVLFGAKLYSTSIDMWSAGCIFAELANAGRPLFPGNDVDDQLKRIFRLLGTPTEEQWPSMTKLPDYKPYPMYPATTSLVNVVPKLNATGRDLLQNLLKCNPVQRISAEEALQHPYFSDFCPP
# AKT3 (PKB gamma), sequence (Q9Y243 whole entry): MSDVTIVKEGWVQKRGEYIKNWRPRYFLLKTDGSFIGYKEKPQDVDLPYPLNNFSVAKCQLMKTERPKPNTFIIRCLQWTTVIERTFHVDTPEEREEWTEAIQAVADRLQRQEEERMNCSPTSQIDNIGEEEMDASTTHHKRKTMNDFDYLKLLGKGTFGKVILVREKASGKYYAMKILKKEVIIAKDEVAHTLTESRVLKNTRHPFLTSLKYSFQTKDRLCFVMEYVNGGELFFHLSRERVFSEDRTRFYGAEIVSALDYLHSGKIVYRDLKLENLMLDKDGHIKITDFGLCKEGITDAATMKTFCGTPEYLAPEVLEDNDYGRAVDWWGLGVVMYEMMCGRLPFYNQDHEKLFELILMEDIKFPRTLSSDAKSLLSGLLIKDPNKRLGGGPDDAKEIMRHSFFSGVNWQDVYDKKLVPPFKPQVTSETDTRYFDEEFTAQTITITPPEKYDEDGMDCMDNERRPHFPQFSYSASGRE
smiles,measurement,setting,value
C#CCOc1ccc(Nc2ncc(Cl)c(Nc3ccccc3NC(=O)C=C)n2)c(OC)c1 [Compound 6],IC50,MAP2K6 (MKK6),316 nM
same,inhibition at 1 µM,MAP2K6 (MKK6); [1],73%
same,inhibition at 10 µM,"MAP2K6 (MKK6); 1 h, log[inhibitor] (M) -5.00, ZLYTE, ATP 100",92%
same,inhibition at 3.311 µM,"MAP2K6 (MKK6); 1 h, log[inhibitor] (M) -5.48, ZLYTE, ATP 100",96%
same,inhibition at 1.122 µM,"MAP2K6 (MKK6); 1 h, log[inhibitor] (M) -5.95, ZLYTE, ATP 100",80%
same,inhibition at 0.3715 µM,"MAP2K6 (MKK6); 1 h, log[inhibitor] (M) -6.43, ZLYTE, ATP 100",51%
same,inhibition at 0.123 µM,"MAP2K6 (MKK6); 1 h, log[inhibitor] (M) -6.91, ZLYTE, ATP 100",29%
same,inhibition at 0.0138 µM,"MAP2K6 (MKK6); 1 h, log[inhibitor] (M) -7.86, ZLYTE, ATP 100",11%
same,inhibition at 0.001514 µM,"MAP2K6 (MKK6); 1 h, log[inhibitor] (M) -8.82, ZLYTE, ATP 100",4%
same,Apparent fold selectivity,MAP2K6 (MKK6); IC50 on that kinase divided by IC50 on FES^S700C,68 fold
same,inhibition at 1 µM,"MAP2K6 (MKK6); read-out: Inhibition at 1 µM (%), MAP2K6 (MKK6), 1 µM, ZLYTE, ATP 100",73%
same,inhibition at 1 µM,AKT3 (PKB gamma); [1],1%
same,Inhibition at 1 µM (%),AKT3 (PKB gamma),3%
same,Inhibition at 1 µM (%),"AKT3 (PKB gamma); listed as WEL028, 1 µM",0%
same,inhibition at 1 µM,FER; [1],23%
same,Inhibition at 1 µM (%),"FER; FER, 1 µM, ZLYTE, ATP Km app, listed as WEL028, 1 µM",27%
same,inhibition at 1 µM,"FER; read-out: Inhibition at 1 µM (%), FER, 1 µM, ZLYTE, ATP Km app",20%
same,inhibition at 1 µM,TLK1; [1],1%
same,inhibition at 1 µM,"TLK1; read-out: Inhibition at 1 µM (%), 1 µM, LanthaScreen Binding",2%
same,inhibition at 1 µM,PIK3C3 (hVPS34); [1],11%
same,Inhibition at 1 µM (%),"PIK3C3 (hVPS34); PIK3C3 (hVPS34), 1 µM, Adapta, ATP Km app, listed as WEL028, 1 µM",12%
same,inhibition at 1 µM,"PIK3C3 (hVPS34); read-out: Inhibition at 1 µM (%), PIK3C3 (hVPS34), 1 µM, Adapta, ATP Km app",11%
same,inhibition at 1 µM,CDK5 (Inactive); [1],3%
same,Inhibition at 1 µM (%),"CDK5 (Inactive); CDK5 (Inactive), 1 µM, LanthaScreen Binding, listed as WEL028, 1 µM",2%
same,inhibition at 1 µM,"CDK5 (Inactive); read-out: Inhibition at 1 µM (%), CDK5 (Inactive), 1 µM, LanthaScreen Binding",3%
same,inhibition at 1 µM,DYRK4; [1],0%
same,Inhibition at 1 µM (%),"DYRK4; DYRK4, 1 µM, ZLYTE, ATP Km app, listed as WEL028, 1 µM",-4% and 4%
same,inhibition at 1 µM,AXL; [1],-2%
same,Inhibition at 1 µM (%),AXL,3%
same,Inhibition at 1 µM (%),"AXL; listed as WEL028, 1 µM",-6%
same,Inhibition at 1 µM (%),"RPS6KA3 (RSK2); 1 µM, ZLYTE, ATP Km app, listed as WEL028, 1 µM",12%
same,inhibition at 1 µM,RPS6KA3 (RSK2); [1],13%
same,inhibition at 1 µM,"RPS6KA3 (RSK2); read-out: Inhibition at 1 µM (%), 1 µM, ZLYTE, ATP Km app",13%
same,inhibition at 1 µM,CSF1R (FMS); [1],11%
same,Inhibition at 1 µM (%),"CSF1R (FMS); CSF1R (FMS), 1 µM, ZLYTE, ATP Km app, listed as WEL028, 1 µM",8%
same,inhibition at 1 µM,"CSF1R (FMS); read-out: Inhibition at 1 µM (%), CSF1R (FMS), 1 µM, ZLYTE, ATP Km app",13%
same,Inhibition at 1 µM (%),"STK25 (YSK1); 1 µM, ZLYTE, ATP Km app",15%
same,inhibition at 1 µM,STK25 (YSK1); [1],5%
same,Inhibition at 1 µM (%),"TLK2; 1 µM, LanthaScreen Binding, listed as WEL028, 1 µM",1%
same,inhibition at 1 µM,TLK2; [1],0%
same,Inhibition at 1 µM (%),PRKD2 (PKD2),2%
same,Inhibition at 1 µM (%),"PRKD2 (PKD2); listed as WEL028, 1 µM",5%
same,inhibition at 1 µM,PRKD2 (PKD2); [1],3%
same,inhibition at 1 µM,NEK4; [1],4%
same,Inhibition at 1 µM (%),"NEK4; NEK4, 1 µM, ZLYTE, ATP Km app, listed as WEL028, 1 µM",5%
same,inhibition at 1 µM,"NEK4; read-out: Inhibition at 1 µM (%), NEK4, 1 µM, ZLYTE, ATP Km app",4%
same,inhibition at 1 µM,CSNK1A1 (CK1 alpha 1); [1],9%
same,Inhibition at 1 µM (%),"CSNK1A1 (CK1 alpha 1); CSNK1A1 (CK1 alpha 1), 1 µM, ZLYTE, ATP Km app, listed as WEL028, 1 µM",12%
same,inhibition at 1 µM,"CSNK1A1 (CK1 alpha 1); read-out: Inhibition at 1 µM (%), CSNK1A1 (CK1 alpha 1), 1 µM, ZLYTE, ATP Km app",6%
